The values that follow come from US8124655B2, “Use of LR-90 and LR-102 to overcome insulin resistance” (City of Hope, priority 2007, dated 2012).

The subject of assay [1] is Zucker diabetic fatty rats (ZDF, fa/fa). The experiment in a line: Pancreatic islet immunohistochemistry and PAMS staining (Example 2). The class given is in vivo, rat. From the text: FIG. 7. Immunohistochemical analysis and quantification of islet cells. ZDF GM fa/fa rats and lean control rats were fed with high fat diet for 30 weeks and received either nothing or LR-90 or LR-102 in their drinking water. Pancreatic sections from various groups of animals were stained with anti-insulin antibody or anti-glucagon antibody. A. Representative images with the overlay of the insulin (green) and glucagon (red staining). […] B. Insulin-positive β-cell-to-glucagon-ratio was also measured from these images.
FIG. 8. Periodic acid methenamine silver (PAMS) staining of pancreatic tissues. Sections from cryopreserved pancreas of each group of animals on the study were stained with PAMS and examined under light microscopy.
(§1) LR-90 at 50 mg/L of drinking water was given to a subgroup of ZDF rats after the rats developed spontaneous diabetes at 13 weeks of age. At 40 weeks of age, and before killing the animals, their weight was measured; HbA1c, plasma glucose, insulin, triglycerides, cholesterol, CRP and urinary albumin and creatinine concentrations were measured. After euthanizing all animals, organs such as the kidneys, eyeballs, liver, heart, aortae and pancreas were dissected and subjected to immunohistochemical staining, RT-PCR, Western blotting and microscopy.

The next assay deals with 3T3 adipocytes. In words: FFA uptake and glucose uptake in 3T3 adipocytes. The class given is cell-based. The note with it: FIG. 14. The source says:
FIG. 14. Effect of LR-90 on 3T3 adipocytes. Tissue culture data on 3T3 adipocytes, showing free fatty acid (FFA) uptake and glucose uptake improvements upon contact with LR-90.
The present Example, with reference to FIG. 14, provides tissue culture data on 3T3 adipocytes, showing free fatty acid (FFA) uptake and glucose uptake improvements upon contact with LR-90.

The test system of assay [2] is Zucker diabetic fatty rats (ZDF, fa/fa). The experiment in a line: Kidney histology, gene and protein expression and lipid peroxidation (Example 2). Type of assay: in vivo, rat. How it is done: FIG. 9. Representative photomicrographs of immunohistochemicals stainings of kidney tissues. A. Periodic Acid-Metheamine Silver (PAMS); B, Masson'S Trichrome; C, AGE; and D, RAGE stainings of kidneys from lean, ZDF and LR-90 treated ZDF rats.
FIG. 10. mRNA expression of TGF-B1, CTGF, fibronectin and RAGE in the kidney cortex. Renal cortices from each treatment group were analyzed by for TGF-B1, CTGF, fibronectin and RAGE gene expression by RT-PCR. A. Representative gel profiles; B, Quantitative results of band densities. 18s/18 sII were used as internal controls.
FIG. 11. Protein expression of TGF-B1 and CTGF in the kidney cortex. Renal cortices from each treatment group were analyzed by for TGF-B1 and CTGF protein expression by Western blotting and immunostaining with specific antibodies. Representative gel profiles and densiitometric quantitation of protein bands. *P<0.01 vs. lean, **P<0.01 vs. ZDF
FIG. 12. Representative immunohistochemical staining for TGF-B1 and CTGF in the kidney cortex. Renal cortices from each treatment group were probed with specific antibodies against TGF-β1 and CTGF.
FIG. 13. Effect of LR-90 on kidney lipid peroxidaton. A. Kidney lipid peroxides were analyzed by measuring malondialdehyde (MDA) in tissue homogenates using the TBARS method. B. Correlation of lipid peroxidation with urinary albumin excretion rates. *P<0.05 vs. ZDF, **P<0.01 vs. ZDF.
as §1, with “The present Example presents the results of an investigation of the effects of LR-90, an inhibitor of AGE/ALE formation, in male Zucker diabetic fatty rats (ZDF, fa/fa) fed with Purina 5008 diet until 40 weeks of age, and their hetorozygous lean littermates (ZDF fa/+) as non-hyperglycemic controls. LR-90” for “LR-90”

The test system of assay [3] is Zucker diabetic fatty (ZDF) rat. The experiment in a line: Kidney lipid peroxidation (malondialdehyde, TBARS), Example 1. Type of assay: in vivo. Conditions: ZDF animals. How it is done: To assess lipid peroxidation in renal cortical homogenates, malondialdehyde, an end-product of lipid peroxidation, was measured as thiobarbituric acid reactive substances by calorimetric reaction as described. Reaction was carried in the presence of EDTA and antioxidant butylated hydroxytoluene, and the absorbance was measured at 532 nm (UV-1601; Shimadzu Scientific Instruments, Columbia, Md., USA). Hydrolysed 1,1,3,3-tetramethoxypropane was used as standard [prepared by incubating 10 mmol/l tetramethoxypropane with 1% (vol./vol.) H2SO4 for 2 h at room temperature]. Results are expressed as nanomole malondialdehyde per milligram protein.

For assay [4] the following is noted: described in U.S. Pat. No. 6,787,566; cited from earlier work.

With `CC(C)(Oc1ccc(NC(=O)Nc2ccc(Cc3ccc(NC(=O)Nc4ccc(OC(C)(C)C(=O)O)cc4)c(Cl)c3)cc2Cl)cc1)C(=O)O` [LR-90, methylene bis[4,4′-(2-chlorophenylureidophenoxyisobutyric acid)]], the “PAMS staining of pancreatic islets” value in assay [1] (FIG. 8) is recorded as “amelioration”. Further, the “number of undamaged insulin-secreting islet cells in the pancreas” value in assay [1] (FIGS. 7 and 8) was “significantly higher number”. In addition, in the assay with 3T3 adipocytes, the “free fatty acid (FFA) uptake” value was “improvements” and the glucose uptake result is reported as “improvements”. Besides, the “reduction of kidney lipid peroxidation” value in assay [2] (ZDF animals, MDA by TBARS, Example 2) is given as around 40%. In addition, in assay [2] (kidney of ZDF rats, FIGS. 9a and b), the “glomerulosclerosis, tubular degeneration and collagen deposition” value is listed as “prevented”. For the same molecule, the “renal AGE and RAGE accumulation” value in assay [2] (kidney of ZDF rats, FIGS. 9c and d) is listed as “reduced”. Further, in assay [2] (kidneys of ZDF rats, FIGS. 10, 11 and 12), the “TGF-β1 and CTGF gene and protein expression, fibronectin and RAGE mRNA” value is reported as “significantly attenuated”. Moreover, the “reduction of kidney lipid peroxidation” value in assay [3] is on record as around 40%. Also, in assay [4], the “breaking AGE-protein cross-links” value is given as “active”.
